The record followed here is patent US20240247048A1 (EMORY UNIVERSITY, priority 2021, published 2024).

“Also recorded” adds a separate entry of the source.

The test system of data set [1] is luciferase+ mouse T cells. Put plainly: proliferation of luciferase+ mouse T cells in vitro (plate-bound anti-CD3, luminescence). Type of data set: cell-based. The following applies: 96 hours; for lowest concentration of peptide that led to maximal luminescence: luc+ T cell proliferation, plate-bound anti-CD3; for luc+ T cell proliferation: relative luminescence, quadruplicate wells, plate-bound anti-CD3, daily addition of peptide, at the concentration in brackets. The text has this:
(§1) VIP-related peptides tested in silico for predicted binding affinities to human VPAC1 and VPAC2 (Creative Biolabs). Docking scores show predicted free energy change associated with peptide binding. Note that a greater negative score is predicted to be associated with higher binding affinity. Based upon an initial screen of 300 peptides for binding affinity to VPAC1 and screening a subset of 100 peptides for binding affinity to VPAC2, a select group of peptides were synthesized and tested for their ability to stimulate proliferation of luciferase+ mouse T cells in vitro. The lowest concentration of peptide that led to maximal luminescence is shown. Proliferation data represents the relative level of luminescence from quadruplicate wells containing 1×10E5 T cells/well in a 96 well tissue culture plate stimulated for 96 hours with plate-bound anti-CD3 antibodies. Confirmatory in vivo testing of select peptides was then performed based upon their ability to induce autologous anti-leukemia responses in C57Bl/6 mice that had been previously injected with 1×10E6 C1498 acute myeloid leukemia cells. Leukemia cells were injected on day 0, 10 ug peptide was injected s.c. daily on days 6-12. The predicted binding affinity to VPAC1 and/or VPAC2 was associated with enhanced activity in stimulating mouse T cell proliferation and anti-leukemia activity in mice.

Data set [2] has as its system C1498 acute myeloid leukemia cells. Briefly: survival of mice engrafted with C1498 acute myeloid leukemia. The following applies: for Median survival time / Percentage alive day 60: 1 x 10E6 C1498 i.v. on day 0, 10 ug peptide s.c. daily on days 6-12. Type of data set: in vivo, mouse. Also noted: percentage of survival: concentration or dose not given beside the values. The procedure: B6 (CD45.2, H-2K^b) mice were administered C1498 1×10^6/mouse through tail vein. […] Survival of the mice was observed daily. Data were pooled from 3 replicated experiments.
B6 (CD45.2, H-2K^b) mice were administered C1498 1×10^6/mouse through tail vein. […] Survival of the mice was observed daily. Survival of the mice were pooled from 3 replicated experiments and analyzed by log-rank test compared with the survival of mice treated with scrambled peptide.
B6 SJL (CD45.1, H-2K^b) mice were administered C1498 (CD45.2 H-2K^b) 1×10^6/mouse through tail vein. […] The mice were bled weekly from the submandibular vein, starting from day 6, prior to the administration of peptides. Antibodies to CD45.2 identified myeloid leukemia cells and antibodies to CD45.1 identified murine leukocytes of the host.
as §1
To test the ability of the disclosed VIP-R antagonists to effect survival to acute myeloid leukemia survival, B6 (CD45.2, H-2K^b) mice were administered C1498 1×10^6/mouse through tail vein. […] Survival of the mice was observed daily.

A short description of data set [3]: toxicity in immunologically naive C57BL/6 mice. Type of data set: in vivo. To be noted: for H&E staining of colon and lung tissue: FIG. 29c-29d; for overall survival, activity levels or weight of mice: daily s.c. for 10 days, same dose as anti-cancer protocol, FIG. 29a; for toxicity in C57BL/6 mice: daily s.c. injection for 10 days, analyzed day 11, FIG. 29. An excerpt: C57BL/6 mice received daily subcutaneous injection of ANT008 or ANT308 for 10 days (n=5 per group) and analyzed for evidence of toxicity on day 11. (FIG. 29A) Body weight in grams during the duration of drug administration; (FIG. 29B) Number of WBCs, RBCs and platelets in blood as per complete blood count (left) proportions of T cells, B cells, NK cells, DCs and MDSCs in spleen as identified by flow cytometry (right) are plotted. Representative H&E stained sections of (FIG. 29C) colon (top), lungs (bottom) and (FIG. 29D) liver are shown. Arrows in FIG. 29D show the focal hepatic lesions in liver. […] C57BL/6 mice received daily subcutaneous injection of 30 ug of ANT308 (n=6) or a combination of 30 ug of ANT308 daily along with 200 ug of anti-PD1 every 3 days (n=6), for a duration of 4 days. Mice receiving scrambled peptide and isotype IgG served as control (n=4). (FIG. 29E) Weight of the mice, (FIG. 29F) complete blood count (CBC) and (FIG. 29G) serum chemistries after 4 days of treatment are plotted. P values in FIGS. 29B, 29E, 29F, and 29G were calculated by ANOVA followed by Dunnett's post-test. Error bars represent mean and standard deviation. *p<0.05, **p<0.01.
To evaluate the effect of VIP-R-mediated signaling inhibition on the growth of PDAC tumors in vivo, three different murine PDAC tumors (KPC-Luc, MT5 and Panc02) were implanted in syngeneic immunocompetent C57BL/6 mice. After tumors were palpable, mice were randomly allocated to treatment with VIP-R antagonists and/or anti-PD-1 monoclonal antibody, or control groups that received scrambled peptide or isotype-matched IgG. […] In addition to the antitumor efficacy, the safety of VIP-R antagonists in immunologically naïve mice was confirmed (FIGS. 29a-29g).
Histology. All tissues for histology were fixed at 4° C. for 2-3 days in 4% paraformaldehyde in PBS, embedded in paraffin and cut into 5-μm thick sections. Slides were deparaffinized with EZ-Prep (#05279771001, Ventana, Tucson, AZ) and then were antigen retrieved for 64 minutes with CC1 reagent (#950-500, Ventana, Tucson, AZ). Mouse anti-VPAC1 and anti-VPAC2 from Sigma Aldrich (St. Louis, MO) diluted at 1:500 or rabbit anti-cytokeratin-19 (Abcam, Cambridge, MA) diluted at 1:500 were applied and incubated for 40 minutes. DISCOVERY OmniMap anti-mouse or anti-rabbit HRP was applied and incubated for 12 minutes. The detection was completed in combination with DISCOVERY ChromoMap DAB kit as per manufacturer's recommendations. Pancreas harvested from mice with orthotopically implanted KPC-Luc tumors or colon, liver and inflated lungs harvested from naïve C57BL/6 mice receiving ANT008 or ANT308 were formalin-fixed and paraffin embedded before being stained with H&E (Leica 560 MX, Wetzlar, Germany) or Masson's Trichrome (Polyscientific Inc., Bay Shore, NY). All slides were dehydrated, cover-slipped and scanned on Hamamatsu Nanozoomer 2.0 HT at 40× and reviewed by a pathologist.

On to KPRRPYTDNYTRLRKQMAVKKYLNLILN [ANT008], for which, in data set [1], the “lowest concentration of peptide that led to maximal luminescence” value is 1 µM and the “luc+ T cell proliferation” value worked out at 185% + 24%. In data set [2], the “Median survival time” value is recorded as 35 days and the “Percentage alive day 60” value is reported as 16%. The sequence further had a percentage of survival in data set [2] (FIG. 3, leukemia-bearing mice treated with peptide) of 16%. For the same sequence, in data set [3], the “H&E staining of colon and lung tissue” value is recorded as “did not show lymphocytic infiltrates or histopathology to suggest auto-immunity”; the “overall survival, activity levels or weight of mice” value is given as “did not affect”; the “toxicity in C57BL/6 mice” value is given as “no adverse toxicity”.

Consider KPRRPYTSDYTRLRKQMAVKKYLNLILN [ANT308], for which, in data set [1], the “lowest concentration of peptide that led to maximal luminescence” value was 3 µM and the “luc+ T cell proliferation” value came to 109% + 8%. In addition, in data set [2], the “Median survival time” value was 34 days and the “Percentage alive day 60” value was determined as 40%. For the same sequence, the “clearance of C1498 leukemia and long-term survival” value in data set [2] (FIGS. 39 and 40) was “dose-dependent clearance; also recorded: schedule-dependent clearance”. In data set [3], the “H&E staining of colon and lung tissue” value was “did not show lymphocytic infiltrates or histopathology to suggest auto-immunity”; the “overall survival, activity levels or weight of mice” value was “did not affect”; the “toxicity in C57BL/6 mice” value was “no adverse toxicity”.
